In patent publication US20230045112A1, “DISULFIRAM AND OTHER REDOX-RELATED COMPOSITIONS FOR BRAIN TUMORS” (Texas Tech University System, priority 2014, published 2023):

Tests used:
[1] = tested on: UW228 cells; assay: Cell cycle analysis (flow cytometry) and apoptosis markers; assay type: cell-based, human; conditions: 100 μM BCNU alone, 24 hours
Method: This was followed by 100 μM BCNU. […] After the treatments, cells were allowed to grow for 24 and 48 hours. At each of these time points cells were harvested and fixed in 70% ethanol. The cells were then washed with PBS and re-suspended in the presence of RNase (1 μg/ml) and propidium iodide (PI, 50 μg/ml) for 30 minutes. Cell cycle histograms were generated using a BD Accuri C6 flow cytometer.

[2] = tested on: GBM cell lines; assay: Potentiation of TMZ in DMG-treated cells; assay type: cell-based
From the text: (§1) Synthesis of 2,4-Dimethylene glutaric acid (DMG), an α-ketoglutaric acid (α-KG) mimic for induction of epigenetic modifications: D-2 hydroxyglutarate (D-2HG) effectively replaces the normal metabolite, α-KG in 70% of low-grade pediatric gliomas with IDH mutations. α-KG is a substrate for TET1, TET2 DNA demethylases, and histone demethylases that maintain normal epigenetic homeostasis. D2-HG directly contributes to the CpG-island methylator phenotype (G-CIMP) and MGMT promoter methylation by competing with α-KG and inhibiting the demethylases. As an innovative strategy of understanding the glioma pathology and turning the tide against it, the inventors prepared DMG, a powerful α-KG derivative to replace the natural metabolite in epigenetic demethylase reactions; induction of such therapeutic methylation in non-IDH mutant GBMs was postulated to regress the tumors. […] DMG efficacy in xenografts and MGMT methylation therein are being tested.

[3] = tested on: TET1, MGMT; assay: Effect of DMG on TET1 and MGMT activities; assay type: cell-based; conditions: GBM cell lines
From the text: as §1

[4] = biological target: T1, Cys145 of MGMT (Homo sapiens, UniProt P16455); assay: BG-PEG-biotin probe binding to MGMT; conditions: UW228 cell extracts, 20 minutes
T1 construct: hexa-histidine; made in house; host or cells: E. coli
T1 sequence (P16455 1-207): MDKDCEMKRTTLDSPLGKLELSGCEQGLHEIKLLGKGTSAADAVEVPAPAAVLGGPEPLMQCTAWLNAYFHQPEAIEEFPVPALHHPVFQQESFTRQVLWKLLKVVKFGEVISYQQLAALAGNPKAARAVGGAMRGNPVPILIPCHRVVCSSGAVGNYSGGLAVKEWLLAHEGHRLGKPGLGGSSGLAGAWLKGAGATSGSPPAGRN
Method: Drug treatments and exposure times are shown in labels. […] Cells were trypsinized at times shown. Levels of MGMT activity and protein were determined in cell extracts. […] BG-PEG-biotin (5 μM) was then added and incubations continued for 15 minutes. The samples were electrophoresed, blotted and probed with Streptavidin-HRP to detect the protein-bound biotin (upper panel). […] Streptavidin-HRP was used to probe the resulting blot (upper panel).
MGMT protein and activity levels were analyzed during the depletion and repletion (FIG. 3B). […] MGMT protein levels as determined by western analyses during the depletion/repletion cycle were consistent with and fully reflected the DNA repair activity profiles (FIG. 3B, left panel).

[5] = tested on: MGMT inactivated cells and xenografts; assay: Antimetabolite cytotoxicity in MGMT inactivated cells and xenografts; assay type: cell-based
From the text: MGMT performs stoichiometric catalysis to remove mutagenic alkyl groups and dies in the process. […] Inhibition of MGMT by siRNA or 06-benzylguanine led to an S-phase block, perturbed DNA synthesis, and re-replication of the genome.

[6] = tested on: NQO1-proficient A549 tumors; assay: NIR imaging of NQO1-proficient tumors in live mice; assay type: in vivo, nude mice; conditions: one mg/kg intravenously
From the text: (§2) Engineering of NQO1 turn-on near-infrared (NIR) fluorophores and theranostic drugs thereof for pediatric brain cancer therapy and multimodality imaging. There is an imperative need for the development of cancer-specific imaging and therapeutic multifunctional or theranostic agents that can allow both imaging and drug delivery. Imaging in the near-infrared (NIR) range of 650-900 nm has been widely used in clinical procedures, because of deep tissue penetration, low autofluorescence, and reduced photon scattering. The inventors developed enzyme-activatable, cell-permeable, non-toxic, and biocompatible ‘turn-on’ NIR fluorescent probes (NIR-ASM, NQ-DCP) that provide accurate detection and visualization of endogenous NQO1 activity both in vitro and an in vivo preclinical model of lung and brain cancers. These fluorophores remain non-fluorescent until cleavage by NQO1 catalysis. In this study, subcutaneous tumors of A549 lung cancer (NQO1-positive) and MDAMB-231 breast cancer (NQO1 negative) were developed in the same animal on opposite flanks.
(§3) The animals were imaged in a IVIS imager at 500-640 nm.

[7] = tested on: NQO1-deficient MDAMB-231 tumors; assay: NIR imaging of NQO1-deficient tumors in live mice; assay type: in vivo, nude mice; conditions: one mg/kg intravenously
From the text: as §2, §3

[8] = biological target: T2, NQO1 (Homo sapiens, UniProt P15559); assay: NQO1 activity inhibition; assay type: biochemical
From the text: (§4) A tumor-targeted NIR small-molecule dye called NQ-THR, was made and specifically accumulated in cancer cells for tumor NIR imaging and simultaneously trigger tumoricidal oxidative stress by acting as an NQO1-bioactivatable substrate. This […] fluorophore provides sufficient specificity and imaging guidance to promote tumor-specific cell death, which can be used for the cancer treatment as well. NQ-IND, the precursor of NQ-THR is an NQO1 activated prodrug itself, which undergoes redox-cycling to produce ROS in brain tumor cells. The functional groups on NQ-IND are amenable to designing NQO1-activated imaging and therapeutic compounds. ES936 (FIG. 20A) is a highly specific, potent, mechanism-based NQO1 inhibitor (55). Inspired by the structure of ES936, the inventors prepared a compound NQ-IND (FIG. 20B) by removing the inhibitory nitroaryl group. NQ-IND was tested for its activity against NQO1 inhibition and cell viability. […]. On the other hand, NQ-IND attached with the NIR fluorescent dyes can be used to generate a theranostic fluorescent probe NQ-THR with both imaging and therapeutic capabilities.

[9] = tested on: normal cells; assay: Cell viability, normal cell lines (NQ-IND); assay type: cell-based
From the text: as §4

[10] = tested on: cancer cell lines; assay: Cell viability, cancer cell lines (NQ-IND); assay type: cell-based
From the text: as §4

[11] = tested on: ROS; assay: Intracellular ROS by NQ-IND (DCF-DA fluorescence); assay type: cell-based
From the text: as §4

[12] = tested on: cell lines; assay: Cytotoxicity of NO-aspirin for cell lines; assay type: cell-based
[13] = biological target: T3, MGMT (Homo sapiens, UniProt P16455); assay: MGMT activity and protein in MGMT-proficient human cancer cell lines (HT29, T47D, HCT116); assay type: cell-based; parameters: endogenous in cells; host or cells: HT29, T47D, HCT116
T3 sequence (P16455 1-207): T1 sequence (P16455 1-207)

[14] = tested on: brain tumor cells; assay: Cytotoxicity of GNQ against brain tumor cells, NQO1 dependence; assay type: cell-based; conditions: coincubation with ES936 or dicumarol
From the text: (§5) (FIG. 15B) Cytotoxicity of GNQ against normal cells astrocytes and primary neurons. (FIG. 15C) Cytotoxicity against NQO1 null cell line MDA-MB-231. (FIG. 15D) Cytotoxicity values against normal and cancer cells in micromoles. […] Normal astrocytes and NQO1-null cells were not sensitive to GNQ.

[15] = tested on: Reactive oxygen species (ROS); assay: Intracellular ROS by GNQ (DCFDA and DHE); assay type: cell-based
Method: (§6) (FIG. 17A). The generation of ROS by GNQ was assessed by using fluorescent probes DCFDA and DHE (FIG. 17C). GNQ acts as NQO1 substrate in vitro. (FIG. 17B) Reduction pathways and subsequent reactions of GNQ. (FIG. 17C) Intracellular ROS levels were measured using DCFDA and DHE. (FIG. 17D) Anti-oxidants reversed the GNQ induced apoptosis. Antitumor efficacy of GNQ against intracranial DAOY medulloblastoma: The BBB permeability of GNQ was examined by pharmacokinetic analysis after IV injections in normal mice. […] Intracranial DAOY tumors were set up in nude mice and the tumor growth was assessed by quantitative bioluminescence. […] FIG. 18A, 18B show complete suppression of intracranial DAOY medulloblastoma growth by GNQ. GNQ was given IP at 25 mg/kg/d, 5 d/wk for about 4 weeks. […] (FIG. 18D) Ex-vivo bioluminescence from the isolated brains (FIG. 18E) Accumulation of GNQ in the brain when compared to plasma. (FIG. 18F) H&E staining of mouse brain sections showing the elimination of […] by GNQ. (FIG. 18G) Mean tumor volume radiance in the GNQ-treated group was compared with that in the control. Different substitutions (halogens, aryl, alkyl, and alkoxy groups) can be made to GNQ to append alkyl side chains to impart hydrophobicity to prepare BBB penetrating analogs.

[16] = tested on: DAOY cells; assay: Potentiation of TMZ cytotoxicity by GNQ; assay type: cell-based
From the text: (§7) To further validate the MGMT deficiency, tumor cells exposed to GNQ can be treated with BCNU and the interstrand DNA crosslinking induced by BCNU, which can be quantitated by ethidium bromide fluorescence assay. Thus, it is possible to take advantage of these altered DNA repair pathways to combine GNQ with TMZ and PARP inhibitors and perform antitumor efficacy studies in orthotopic xenografts of pediatric brain cancers.
(§8) FIG. 21A to 21D show the inhibition of MGMT activity (FIG. 21A) and its degradation (FIG. 21B) induced by GNQ in DAOY cells. […] (FIG. 21D) GNQ potentiates the cytotoxicity of TMZ.

[17] = tested on: intracranial DAOY medulloblastoma; assay: Intracranial DAOY medulloblastoma in nude mice treated with GNQ, bioluminescence; assay type: in vivo; conditions: IP 25 mg/kg/d, 5 d/wk for about 4 weeks
Method: Intracranial glioblastoma xenograft development in nude mice: GBM cells stably expressing luciferase and GFP are suspended at 2×10^5 cells/5 μl sterile PBS injected into mouse brains. For developing […], mice are anesthetized and placed on a stereotactic apparatus. For developing breast cancer brain metastases xenografts, brain-seeking breast cancer cells are injected into the left ventricle of the heart of each mouse under anesthesia. Three weeks later the mice are imaged for intracranial Firefly luciferase activity. Mice with intracranial bioluminescence are randomly divided into different groups for drug treatments. Imaging is performed 10 minutes after i.p. injection of D-luciferin (2 mg per animal) with mice lying in the prone position. Besides the bioluminescence studies, the survival of the human glioblastoma cell grafted mice after drug administrations are closely followed to generate the Kaplan-Meir curves.
(FIG. 17A). The generation of ROS by GNQ was assessed by using fluorescent probes DCFDA and DHE (FIG. 17C). GNQ acts as NQO1 substrate in vitro. (FIG. 17B) Reduction pathways and subsequent reactions of GNQ. (FIG. 17C) Intracellular ROS levels were measured using DCFDA and DHE. (FIG. 17D) Anti-oxidants reversed the GNQ induced apoptosis. […] Intracranial DAOY tumors were set up in nude mice and the tumor growth was assessed by quantitative bioluminescence. […]

[18] = biological target: T2, NQO1; assay: NQO1 substrate assay (NADH utilization); assay type: biochemical
Method: as §6

[19] = tested on: Normal astrocytes and NQO1-null cells; assay: Cytotoxicity of GNQ against normal and NQO1-null cells; assay type: cell-based
From the text: as §5

[20] = biological target: T3, MGMT; assay: MGMT inhibition by GNQ in DAOY cells; assay type: cell-based; parameters: endogenous in cells; host or cells: DAOY
From the text: as §7, §8

[21] = Pharmacokinetic analysis of GNQ after IV injections, BBB permeability; assay type: in vivo; conditions: mouse, brain, normal mice, read-out: accumulation in the brain, % of plasma levels
Method: as §6

[22] = biological target: T3, MGMT; assay: Effect of proteasome inhibitor PS-341 on degradation of DSF-modified MGMT in UW228 cells; assay type: cell-based; parameters: endogenous in cells; host or cells: UW228, T98G
From the text: The samples were immunoblotted and probed with MGMT antibodies (right panel). The densitometric quantitation of protein bands on the western blots is shown as a line graph on the left. […] Cell lysates were western blotted for the MGMT protein. […] Kinetics of DNA interstrand crosslinks formed in UW228 cells after treatment with […] BCNU or […] melphalan is shown. […] They were then exposed to BCNU or melphalan. At times specified, the cells were harvested, DNA isolated and the extent of interstrand crosslinking of DNA was determined using the ethidium bromide fluorescence assay. Values are mean+S.D. The results were significant at P<0.05. […] The cells were trypsinized at times indicated and analyzed by flow cytometry.
Since the MGMT inactivated by BG is degraded through ub-proteolysis, it was of interest to investigate the mode of elimination of DSF-modified MGMT protein. Therefore, first, we compared the in vitro degradation of DSF-treated and untreated rMGMT protein in rabbit reticulocyte lysates (RL), which are known to promote the proteasomal degradation. The control and DSF-modified MGMT proteins were incubated with RL in the presence of Mg++, ATP and ubiquitin at 37° C. The reaction mixtures were blotted and probed with MGMT antibodies. […] To show the involvement of the ub-proteolysis in cells a clinically used proteasome inhibitor. […]

T2 sequence (P15559 whole entry): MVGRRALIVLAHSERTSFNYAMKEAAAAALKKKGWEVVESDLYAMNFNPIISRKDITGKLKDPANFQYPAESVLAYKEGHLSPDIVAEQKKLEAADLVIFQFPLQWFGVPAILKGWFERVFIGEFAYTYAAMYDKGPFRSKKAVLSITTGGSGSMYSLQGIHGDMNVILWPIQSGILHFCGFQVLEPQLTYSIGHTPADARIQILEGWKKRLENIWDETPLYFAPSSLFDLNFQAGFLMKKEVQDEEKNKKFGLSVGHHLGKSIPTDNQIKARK

Structure (SMILES): O=NN(CCCl)C(=O)NCCCl [BCNU, 1,3-bis-2-chloroethylnitrosourea]
- G2/M blockade, % of cells [1]: 33 % of cells

Structure (SMILES): C=C(CC(=C)C(=O)O)C(=O)O [DMG, 2,4-Dimethylene glutaric acid]
- potentiation of TMZ [2]: 6-8 fold
- effect on TET1, MGMT activities [3]: curtailed TET1, MGMT activities

Structure (SMILES): CCN1C(=O)C=CC1=O [NEM, N-ethylmaleimide]
- BG-PEG-biotin labeling of MGMT in cell extracts after drug [4]: prevented the BG-labeling of the protein

Structure (SMILES): O=c1[nH]cc(F)c(=O)[nH]1 [5FU]
- increase in cytotoxicity in MGMT inactivated cells and xenografts [5]: 10-15 fold

Structure (SMILES): CC1=C(C)C(=O)C(C(C)(C)CC(=O)Nc2ccc(/C=C/C3=CC(=C(C#N)C#N)CC(C)(C)C3)cc2)=C(C)C1=O [NIR-ASM]
- time to fluorescent signal in tumors [6]: ≤ 5 min
- fluorescent signal in tumors [7]: totally negative after 3 hours

Structure (SMILES): COC1=CC(=O)c2c(c(CO)cn2C)C1=O [NQ-IND]
- effect on NQO1 activity [8]: did not affect the activity of NQO1
- effect on normal cells [9]: no effect on normal cells
- cancer cell proliferation [10]: inhibit cancer cell proliferation selectively
- ROS by DCF-DA fluorescence [11]: generate ROS

Structure (SMILES): CC(=O)Oc1ccccc1C(=O)Oc1cccc(CO[N+](=O)[O-])c1 [NCX-4016, 2-(acetyloxy) benzoic acid 3-[(nitrooxy)methyl]phenyl ester]
- IC50 [12]: > 500 µM
- MGMT protein degraded ([13]; 5 μM for 2 hours): 80-90%
- inhibition of MGMT activity ([13]; HT29, T47D, HCT116, 5-10 μM, within 1 hour of exposure): 90%
- MGMT protein regenerated ([13]; HT29 cells, 24 hours post-incubation in drug-free medium): More than 60%

Structure (SMILES): O=C1NC2(c3ccccc31)c1ccccc1C1C(=O)c3cccc(O)c3C(=O)C12 (stereo not drawn) [GNQ]
- effect of NQO1 inhibitors on GNQ cytotoxicity [14]: reversed by coincubation with NQO1 inhibitors ES936 or dicumarol
- ROS generation [15]: generates Reactive oxygen species (ROS)
- sensitization to TMZ [16]: sensitized to TMZ
- body weight as a surrogate marker for toxicity [17]: No changes in body weight
- tumor bioluminescence [17]: complete loss of bioluminescence
- NADH utilized throughout the assay [18]: greater than 1 equiv. of NADH
- sensitivity to GNQ [19]: not sensitive
- MGMT inhibition [20]: remarkably inhibited
- Kp [21]: ≤ 0.11

Structure (SMILES): COC1=CC(=O)c2c(c(COc3ccc([N+](=O)[O-])cc3)c(C)n2C)C1=O [ES936]
- effect on NQO1 activity [8]: completely inhibited the NQO1 activity

Structure (SMILES): CC(C)C[C@H](NC(=O)[C@H](Cc1ccccc1)NC(=O)c1cnccn1)B(O)O [PS341, bortezomib]
- decrease of MGMT degradation ([22]; 10 μM PS341 co-incubation with 50 μM DSF for 6 hours): 20%
- reduction in the loss of MGMT protein ([22]; pretreated 6 hours with 10 μM PS341 followed by 50 μM DSF for 12 hours): > 50%
